According to US20240279278A1, “NMU RECEPTOR 2 AGONISTS” (Boehringer Ingelheim International GmbH, priority 2023, published 2024):
Residues, ends and D or L forms follow the SMILES beside them.

Legend:
human NMUR1 receptor = biological target: T1, human NMUR1 receptor (Homo sapiens, UniProt Q9HB89); assay: Radioligand binding competition assay (RLB), human NMUR1 receptor binding (SPA, [125I]-Neuromedin U-25); settings: CHO-K1 hNMUR1 cell membranes, 4 hours at RT
T1 construct: host or cells: CHO-K1
T1 sequence (Q9HB89 24-426 limits assumed): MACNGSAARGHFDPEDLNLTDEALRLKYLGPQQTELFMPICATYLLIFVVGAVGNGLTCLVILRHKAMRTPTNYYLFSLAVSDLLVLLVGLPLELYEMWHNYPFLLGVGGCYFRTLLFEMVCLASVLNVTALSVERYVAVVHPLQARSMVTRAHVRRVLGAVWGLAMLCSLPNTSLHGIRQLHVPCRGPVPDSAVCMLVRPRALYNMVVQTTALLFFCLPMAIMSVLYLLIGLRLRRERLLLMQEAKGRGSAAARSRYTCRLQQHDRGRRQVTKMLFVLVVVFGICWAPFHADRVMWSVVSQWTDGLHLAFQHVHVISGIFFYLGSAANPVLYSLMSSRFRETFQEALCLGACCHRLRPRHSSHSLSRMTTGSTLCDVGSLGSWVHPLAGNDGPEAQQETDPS
From the text: Example 2: Radioligand Binding Competition Assay (RLB) Human NMUR1 Receptor Binding 1) Membranes The test is based on membranes prepared from a human NMUR1/Apoaequorin Stable Cell Line (Creative Biogene, Cat. No. CSC-RG1308). Cell Line Description: CHO-NMUR1 cell line is clonally-derived from a CHO-K1 cell line, which has been transfected with a bicistronic expression plasmid containing the sequence coding for the human neuromedin U receptor 1 (NM_006056.4, 180 to 1391). Mosaic-ID: CL16550614 Membrane preparation: Cells were broken by nitrogen cavitation (900 psi, 1 hour). Intact cells were removed by centrifugation (400 rcf, 10 minutes, 4° C.) before the crude membrane fraction was collected by ultracentrifugation (20.000 rcf, 1 hour, 4° C.). 2) Human NMUR1 Receptor Binding Assay (Radioligand: [125l]-Neuromedin U-25) In this Scintillation Proximity Assay (SPA) design, the membranes immobilize directly to the PVT-WGA-PEI type A beads (polyethyleneimine treated polyvinyltoluene beads coupled to wheatgerm agglutinin, Perkin Elmer) via interactions of wheat germ agglutinate and glycosylated membrane structures. Thereby the radioactively la-belled ligand, bound to NMUR1 receptors on the membrane, comes in close proximity to the solid scintillator of the PVT bead. Radioactive human neuromedin U-25 then stimulates the scintillant to emit light. In contrast, radioligand not bound to the receptor is too distant from the bead to elicit a signal. For the Scintillation Proximity Assay the CHO-K1 hNMUR1 cell membranes and SPA-beads are diluted to concentrations, which assure a robust signal to background ratio. The SPA incubation buffer consists of 25 mM Hepes (pH=7.0), 5 mM MgCl2, 1 mM CaCl2, 10 ug/mL Saponine and 0.1% bovine serum albumin and is used for all dilutions. Final assay setup in 96-well plate: 20 μL of 10× test compound dilutions+40 μL of 5× [125l]-Neuromedin U-25 (1× approx. 30 pM; 2000 μCi/mmol (μCi=microcurie))+60 μL membrane dilution (approx. 1.0 μg membrane protein)+80 μL SPA bead dilution (250 μg). The assay is incubated for 4 hours at RT, including controls for specific binding where no displacer is added and non-specific binding by adding unlabeled hNMU-25 at 100 nM. Bound radioactivity is determined by scintillation counting (MicroBeta Trilux 1450, Perkin Elmer, detection of 125I decay). […] The system assumes one binding site with no relevant radioligand depletion (<10%) and that the binding is reversible and at equilibrium. [formula] [formula]

human NMUR2 receptor = human NMUR2 receptor (Homo sapiens, UniProt Q9GZQ4); assay: IP1 Gq HTRF assay, activation of human NMUR2 in human plasma; format: cell-based; set-up: expressed in transfected cells; host or cells: CHO-K1; settings: CHO-K1 cells expressing human NMUR2, 100% human plasma; read-out: EC50 (hNMUR2) human plasma
Sequence of human NMUR2 receptor (Q9GZQ4 whole entry): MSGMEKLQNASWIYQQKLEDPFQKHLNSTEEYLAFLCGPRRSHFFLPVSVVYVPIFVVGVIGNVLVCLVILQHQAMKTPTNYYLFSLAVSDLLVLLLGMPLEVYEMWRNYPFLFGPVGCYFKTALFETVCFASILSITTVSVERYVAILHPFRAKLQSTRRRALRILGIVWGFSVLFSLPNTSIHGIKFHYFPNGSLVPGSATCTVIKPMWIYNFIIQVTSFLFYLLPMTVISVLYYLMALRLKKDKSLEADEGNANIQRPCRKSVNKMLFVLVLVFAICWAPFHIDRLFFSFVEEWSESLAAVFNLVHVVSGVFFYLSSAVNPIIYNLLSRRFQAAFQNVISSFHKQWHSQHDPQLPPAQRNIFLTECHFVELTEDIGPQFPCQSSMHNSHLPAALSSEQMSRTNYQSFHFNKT
In short: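 EC50 obtained via 4-parameter sigmoidal regression of HTRF IP-One signal (665 nm/620 nm), which falls as intracellular IP1 rises. Stimulation: 1 h, 37° C, peptides in human plasma plus 50 mM LiCl, 1% DMSO final, on NMUR2-expressing CHO-K1 cells, 8 concentrations.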

Compound	Ki (human NMUR1 receptor) [nM]	EC50 (human NMUR2 receptor) [nM]
CCCC[C@H](NC(=O)[C@H](CC(C)C)N(C)C(=O)[C@H](Cc1ccccc1)NC(=O)[C@H](Cc1ccc(O)cc1)NC(=O)CN1CCN(CCNC(=O)CN(C)C(=O)CN(C)C(=O)CN(C)C(=O)CN(C)C(=O)CN(C)C(=O)CN(C)C(=O)CN(C)C(=O)CN(C)C(=O)CN(C)C(=O)CN(C)C(=O)CN(C)C(=O)CN(C)C(=O)CN(C)C(=O)CN(C)C(=O)CN(C)C(=O)CC[C@H](NC(=O)CC[C@H](NC(=O)CC[C@H](NC(=O)CCCCCCCCCCCCCCCCCCC(=O)O)C(=O)O)C(=O)O)C(=O)O)CC1)C(=O)N[C@@H](CCCN)C(=O)N1CCC[C@H]1C(=O)N[C@@H](CCCNC(=N)N)C(=O)NCC(N)=O [Compound 1, C20DA-gGlu3-Sar15-AEPipAc-Tyr-Phe-NMeLeu-Nle-Orn-Pro-Arg-Gly-NH2] (HELM PEPTIDE1{[O=C(O)CCCCCCCCCCCCCCCCCCC(=O)[*:2]].[gGlu].[gGlu].[gGlu].[Sar].[Sar].[Sar].[Sar].[Sar].[Sar].[Sar].[Sar].[Sar].[Sar].[Sar].[Sar].[Sar].[Sar].[Sar].[O=C(CN1CCN(CCN[*:1])CC1)[*:2]].Y.F.[meL].[Nle].[Orn].P.R.G.[am]}$$$$V2.0)	> 10000	2.8
CCCC[C@H](NC(=O)[C@H](CC(C)C)N(C)C(=O)[C@H](Cc1ccccc1)NC(=O)[C@H](Cc1ccc(O)cc1)NC(=O)CN1CCN(CCNC(=O)CN(C)C(=O)CN(C)C(=O)CN(C)C(=O)CN(C)C(=O)CN(C)C(=O)CN(C)C(=O)CN(C)C(=O)CN(C)C(=O)CN(C)C(=O)CN(C)C(=O)CN(C)C(=O)CN(C)C(=O)CC[C@H](NC(=O)CC[C@H](NC(=O)CC[C@H](NC(=O)CCCCCCCCCCCCCCCCCCC(=O)O)C(=O)O)C(=O)O)C(=O)O)CC1)C(=O)N[C@@H](CCCNC(=N)N)C(=O)N1CCC[C@H]1C(=O)N[C@@H](CCCNC(=N)N)C(=O)NCC(N)=O [Compound 6, C20DA-gGlu3-Sar12-AEPipAc-Tyr-Phe-NMeLeu-Nle-Arg-Pro-Arg-Gly-NH2]	> 10000	6.9
CCCC[C@H](NC(=O)[C@H](CC(C)C)N(C)C(=O)[C@H](Cc1ccccc1)NC(=O)[C@H](Cc1ccc(O)cc1)NC(=O)CN1CCN(CCNC(=O)CN(C)C(=O)CN(C)C(=O)CN(C)C(=O)CN(C)C(=O)CN(C)C(=O)CN(C)C(=O)CN(C)C(=O)CN(C)C(=O)CN(C)C(=O)CN(C)C(=O)CN(C)C(=O)CN(C)C(=O)CN(C)C(=O)CN(C)C(=O)CN(C)C(=O)CC[C@H](NC(=O)CC[C@H](NC(=O)CC[C@H](NC(=O)CCCCCCCCCCCCCCCCC(=O)O)C(=O)O)C(=O)O)C(=O)O)CC1)C(=O)N[C@@H](CCCNC(=N)N)C(=O)N1CCC[C@H]1C(=O)N[C@@H](CCCNC(=N)N)C(=O)NCC(N)=O [Compound 7, C18DA-gGlu3-Sar15-AEPipAc-Tyr-Phe-NMeLeu-Nle-Arg-Pro-Arg-Gly-NH2] (HELM PEPTIDE1{[O=C(O)CCCCCCCCCCCCCCCCC(=O)[*:2]].[gGlu].[gGlu].[gGlu].[Sar].[Sar].[Sar].[Sar].[Sar].[Sar].[Sar].[Sar].[Sar].[Sar].[Sar].[Sar].[Sar].[Sar].[Sar].[O=C(CN1CCN(CCN[*:1])CC1)[*:2]].Y.F.[meL].[Nle].R.P.R.G.[am]}$$$$V2.0)	3740	4.4
CCCC[C@H](NC(=O)[C@H](CC(C)C)N(C)C(=O)[C@H](Cc1ccccc1)NC(=O)[C@H](Cc1ccc(O)cc1)NC(=O)CN1CCN(CCNC(=O)CN(C)C(=O)CN(C)C(=O)CN(C)C(=O)CN(C)C(=O)CN(C)C(=O)CN(C)C(=O)CN(C)C(=O)CN(C)C(=O)CN(C)C(=O)CN(C)C(=O)CN(C)C(=O)CN(C)C(=O)CC[C@H](NC(=O)CC[C@H](NC(=O)CC[C@H](NC(=O)CCCCCCCCCCCCCCCCCCC(=O)O)C(=O)O)C(=O)O)C(=O)O)CC1)C(=O)N[C@@H](CCN)C(=O)N1CCC[C@H]1C(=O)N[C@@H](CCCNC(=N)N)C(=O)NCC(N)=O [Compound 8, C20DA-gGlu3-Sar12-AEPipAc-Tyr-Phe-NMeLeu-Nle-Dbu-Pro-Arg-Gly-NH2]	> 10000	9
CCCC[C@H](NC(=O)[C@H](CC(C)C)N(C)C(=O)[C@H](Cc1ccccc1)NC(=O)[C@H](Cc1ccc(O)cc1)NC(=O)CN1CCN(CCNC(=O)CN(C)C(=O)CN(C)C(=O)CN(C)C(=O)CN(C)C(=O)CN(C)C(=O)CN(C)C(=O)CN(C)C(=O)CN(C)C(=O)CN(C)C(=O)CN(C)C(=O)CN(C)C(=O)CN(C)C(=O)CN(C)C(=O)CN(C)C(=O)CN(C)C(=O)CC[C@H](NC(=O)CC[C@H](NC(=O)CC[C@H](NC(=O)CCCCCCCCCCCCCCCCCCC(=O)O)C(=O)O)C(=O)O)C(=O)O)CC1)C(=O)N[C@@H](CCCNC(=N)N)C(=O)N1CCC[C@H]1C(=O)N[C@@H](CCCNC(=N)N)C(=O)NCC(N)=O [Compound 9, C20DA-gGlu3-Sar15-AEPipAc-Tyr-Phe-NMeLeu-Nle-Arg-Pro-Arg-Gly-NH2] (HELM PEPTIDE1{[O=C(O)CCCCCCCCCCCCCCCCCCC(=O)[*:2]].[gGlu].[gGlu].[gGlu].[Sar].[Sar].[Sar].[Sar].[Sar].[Sar].[Sar].[Sar].[Sar].[Sar].[Sar].[Sar].[Sar].[Sar].[Sar].[O=C(CN1CCN(CCN[*:1])CC1)[*:2]].Y.F.[meL].[Nle].R.P.R.G.[am]}$$$$V2.0)	> 10000	5.8
CCCC[C@H](NC(=O)[C@H](CC(C)C)N(C)C(=O)[C@H](Cc1ccccc1)NC(=O)[C@H](Cc1ccc(O)cc1)NC(=O)CN1CCN(CCNC(=O)CN(C)C(=O)CN(C)C(=O)CN(C)C(=O)CN(C)C(=O)CN(C)C(=O)CN(C)C(=O)CN(C)C(=O)CN(C)C(=O)CN(C)C(=O)CN(C)C(=O)CN(C)C(=O)CN(C)C(=O)CN(C)C(=O)CN(C)C(=O)CN(C)C(=O)CC[C@H](NC(=O)CC[C@H](NC(=O)CC[C@H](NC(=O)CCCCCCCCCCCCCCCCCCC(=O)O)C(=O)O)C(=O)O)C(=O)O)CC1)C(=O)N[C@@H](CCCNC(=N)N)C(=O)N(C)[C@@H](C)C(=O)N[C@@H](CCCNC(=N)N)C(=O)NCC(N)=O [Compound 10, C20DA-gGlu3-Sar15-AEPipAc-Tyr-Phe-NMeLeu-Nle-Arg-NMeAla-Arg-Gly-NH2] (HELM PEPTIDE1{[O=C(O)CCCCCCCCCCCCCCCCCCC(=O)[*:2]].[gGlu].[gGlu].[gGlu].[Sar].[Sar].[Sar].[Sar].[Sar].[Sar].[Sar].[Sar].[Sar].[Sar].[Sar].[Sar].[Sar].[Sar].[Sar].[O=C(CN1CCN(CCN[*:1])CC1)[*:2]].Y.F.[meL].[Nle].R.[meA].R.G.[am]}$$$$V2.0)	> 10000	9.8
CCCC[C@H](NC(=O)[C@H](CC(C)C)N(C)C(=O)[C@H](Cc1ccccc1)NC(=O)[C@H](Cc1ccc(O)cc1)NC(=O)CN1CCN(CCNC(=O)CN(C)C(=O)CN(C)C(=O)CN(C)C(=O)CN(C)C(=O)CN(C)C(=O)CN(C)C(=O)CN(C)C(=O)CN(C)C(=O)CN(C)C(=O)CN(C)C(=O)CN(C)C(=O)CN(C)C(=O)CN(C)C(=O)CN(C)C(=O)CN(C)C(=O)CC[C@H](NC(=O)CC[C@H](NC(=O)CC[C@H](NC(=O)CCCCCCCCCCCCCCCCC(=O)O)C(=O)O)C(=O)O)C(=O)O)CC1)C(=O)N[C@@H](CCCNC(=N)N)C(=O)N(C)[C@@H](C)C(=O)N[C@@H](CCCNC(=N)N)C(=O)NCC(N)=O [Compound 11, C18DA-gGlu3-Sar15-AEPipAc-Tyr-Phe-NMeLeu-Nle-Arg-NMeAla-Arg-Gly-NH2] (HELM PEPTIDE1{[O=C(O)CCCCCCCCCCCCCCCCC(=O)[*:2]].[gGlu].[gGlu].[gGlu].[Sar].[Sar].[Sar].[Sar].[Sar].[Sar].[Sar].[Sar].[Sar].[Sar].[Sar].[Sar].[Sar].[Sar].[Sar].[O=C(CN1CCN(CCN[*:1])CC1)[*:2]].Y.F.[meL].[Nle].R.[meA].R.G.[am]}$$$$V2.0)	> 10000	10.6
